According to patent US20230104281A1, “FLUORESCENT RHODAMINE DYES WITH ENHANCED CELL PERMEABILITY” (Max-Planck-Gesellschaft zur Foerderung der Wissenschaften …, priority 2020, published 2023):

Legend:
[1] = Absorbance in 1,4-dioxane-water mixtures (D50, spirolactone-zwitterion equilibrium); format: physicochemical; settings: 1,4-Dioxane-Water with constant 0.3% SDS additive; dielectric constant at which absorbance is halved
Protocol: The D50 values indicated herein are determined by measuring the respective absorbance of a sample (dye isomer or derivative or conjugate thereof), in varied water-1,4-dioxane mixtures with known dielectric constants according to an established method (e.g. Åkerlöf G, Short AO. J Am Chem Soc 1936, 58(7): 1241-1243). D50 is commonly used as numeric value for the evaluation of the equilibrium changes and represents a dielectric constant at which absorbance is halved (Butkevich A. N.; Mitronova G. Y.; Sidenstein. S. C.; Klocke J. L.; Kamin D.; Meineke D. N. H.; D'Este E.; Kraemer P. T.; Danzl J. G.; Belov V. N.; Hell S. W., Angew. Chem. Int. Ed. 2016, 55, 3290-3294).
The D50 values were calculated using the following equation:
(§1) where A0—absorbance at λmax at εr=0, λmax—the highest reached absorbance at λmax, d—dielectric constant of 1,4-dioxane-water mixture at a given point, Hill—Hill slope coefficient determining the steepness of a dose-response curve, D50—corresponds to d value that provokes half of the absorbance amplitude (λmax−A0).
Measurements of the absorbance changes in 1,4-dioxane-water mixtures were performed by pipetting 2 μL stock solutions of dyes or probes in DMSO into a 96 glass bottom well plate (11 wells per sample) made from propylene (Corning 3364). To the wells going from right to left 300 μL of 1,4-dioxane-water mixtures containing 100%, 90%, 80%, 70%, 60%, 50%, 40%, 30%, 20%, 10% or 0% 1,4-dioxane was added (if needed, mixtures with 0.3% SDS are used, with an exception in 100% dioxane due to solubility issues). After incubation for 1 hour at room temperature, absorption of solutions in each well was recorded from 320 nm to 850 nm with wavelength step size of 1 nm on a multiwell plate reader Spark® 20M (Tecan). The background absorption of the glass bottom plate was measured in wells containing only 1,4-dioxane-water mixture with similar amount of DMSO and subtracted from the spectra of the samples. […]
as §1, with “λmax.” for “λmax,”
The ability of the fluorophores to switch between spirolactone and zwitterion states can be characterized by measuring the absorbance in water-1,4-dioxane mixtures with known dielectric constant (Åkerlöf G, Short A O. J Am Chem Soc 1936, 58(7): 1241-1243). D50 is commonly used as numeric value for the evaluation of the equilibrium changes and represents a dielectric constant at which absorbance is halved.

HeLa cells = assay: Cell cycle analysis by imaging flow cytometry and EC50 determination (subG1 cells, cytotoxicity of tubulin probes); format: cell-based; settings: 24 h incubation at 37° C. in growth media; compared with parent compound larotaxel
Protocol: HeLa cells were grown in 6-well plates (^˜250.000 cells per well) for 24 h in the presence of the fluorescent probe in variable concentrations. The probes were dissolved in DMSO at 500-2000-fold stock concentration and added to the media of cultured cells at 500-2000-fold dilution accordingly. In parallel, the appropriate DMSO control samples were prepared by adding corresponding amount of DMSO volume to the separate well. Cells were processed according to the NucleoCounter® NC-3000™ two-step cell cycle analysis protocol for cells attached to T-flasks, cell culture plates or micro-carriers. […] Cells were counted on a NucleoCounter® NC-3000™ in NC-Slide A2™ slides (Chemometec, Cat. No. 942-0001) loaded with ˜30 μl of each of the cell suspensions into the chambers of the slide. Each time, ^˜10.000 cells in total were measured, and the obtained cell cycle histograms were analysed with ChemoMetec NucleoView NC-3000 software, version 2.1.25.8. […] The EC50 values were determined by plotting the percentage of cells in subG1 phase and fitting the curve in GraphPad Prism 6 to the following function: […]
As mentioned above, FIG. 3. illustrates the tubulin labelling of mammalian cells: a, structures of the tubulin probes. b, Wide-field fluorescence microscopy of living primary fibroblasts stained 100 nM TMR-LTX isomers for 1 h at 37° C. […]

tubulin = assay: Wide-field fluorescence microscopy of living primary fibroblasts stained with tubulin probes; format: cell-based, human
Protocol: Human primary dermal fibroblasts and HeLa cells were cultured in high-glucose DMEM (Life Technologies, Cat. No. 31053-028) supplemented with GlutaMAX-1 (Life Technologies, Cat. No. 35050-038) and 10% fetal bovine serum (FBS, Life Technologies, Cat. No. 10270-106) in a humidified 5% CO2 incubator at 37° C. The cells were split every 3-4 days or at confluence. Cells were seeded in glass bottom 12-well plates (MatTek Corporation, Cat. No. P12G-1.0-14-F).
Cells were stained with the fluorescent probes in DMEM (Thermo Fisher Scientific, Cat. No. 31053-028) supplemented with 10% FBS (Thermo Fisher Scientific, Cat. No. 10082139) at 37° C. and 5% CO2. […]
Actin/tubulin cytosolic signal was estimated using CellProfiler v.3.1.8. […] The background was subtracted from the original probe channel, and actin/tubulin staining was measured as mean pixel intensity per object in background-corrected probe channel. […]
As mentioned above, FIG. 3. illustrates the tubulin labelling of mammalian cells: a, structures of the tubulin probes. b, Wide-field fluorescence microscopy of living primary fibroblasts stained 100 nM TMR-LTX isomers for 1 h at 37° C. […] Hoechst staining is shown in cyan and all tubulin probes were shown in magenta. c, Quantification of fluorescence signal in the cytoplasm of living cells stained with tubulin probes. […]

In the case of `CC(=O)O[C@H]1C(=O)[C@]23C[C@H]2C[C@H]2OC[C@@]2(OC(C)=O)[C@H]3[C@H](OC(=O)c2ccccc2)[C@]2(O)C[C@H](OC(=O)[C@H](O)[C@@H](NC(=O)CCCCCCCNC(=O)c3cccc4c3C(=O)OC43c4ccc(N(C)C)cc4Oc4cc(N(C)C)ccc43)c3ccccc3)C(C)=C1C2(C)C` [TMR-LTX 4′-isomer], the D50 [1] is reported as 26.5 ± 0.5, the “EC50, accumulation of subG1 phase cells (cytotoxicity)” value (HeLa cells) is reported as “almost as efficiently as parent compound” and the membrane permeability (tubulin; living cells, 100 nM probe, 1 h at 37° C., compared to 5′- and 6′-isomers) is reported as “excellent membrane permeability”. For the same compound, the tubulin labelling specificity (tubulin; mammalian cells, simple incubation with probe) was “highly specific tubulin labelling”.

With `CNc1ccc2c(c1)C(C)(C)c1cc(NC)ccc1C21OC(=O)c2c(C(=O)NCCCCCCCC(=O)N[C@@H](c3ccccc3)[C@@H](O)C(=O)O[C@H]3C[C@@]4(O)[C@@H](OC(=O)c5ccccc5)[C@@H]5[C@]6(OC(C)=O)CO[C@@H]6C[C@@H]6C[C@@]65C(=O)[C@H](OC(C)=O)C(=C3C)C4(C)C)cccc21` [580CP-LTX 4′-isomer] the D50 [1] was 62 ± 1.

With `CO[C@H]1C(=O)[C@]2(C)[C@@H](OC)C[C@H]3OC[C@@]3(OC(C)=O)[C@H]2[C@H](OC(=O)c2ccccc2)[C@]2(O)C[C@H](OC(=O)[C@H](O)[C@@H](NC(=O)CCCCCCCNC(=O)c3cccc4c3C(=O)OC43c4ccc(N(C)C)cc4[Si](C)(C)c4cc(N(C)C)ccc43)c3ccccc3)C(C)=C1C2(C)C` [SiR-CTX 4′-isomer] the D50 [1] was >80.

With `CO[C@H]1C(=O)[C@]2(C)[C@@H](OC)C[C@H]3OC[C@@]3(OC(C)=O)[C@H]2[C@H](OC(=O)c2ccccc2)[C@]2(O)C[C@H](OC(=O)[C@H](O)[C@@H](NC(=O)CCCCCCCNC(=O)c3cccc4c3C(=O)OC43c4ccc(N(C)C)cc4C(C)(C)c4cc(N(C)C)ccc43)c3ccccc3)C(C)=C1C2(C)C` [610CP-CTX 4′-isomer] the D50 [1] was 65 ± 2.
